No end group written: not given here. *: point of attachment. FITC = O=C1OC2(c3ccc(O)cc3Oc3cc(O)ccc32)c2ccc(NC(=S)*)cc21
Columns and labels:
L. seeligeri [1] = assay type: cell-based, Listeria seeligeri; settings: for antimicrobial activity of conjugated peptides: growth inhibition, Fig. S7 and S9
Protocol: To determine the potency of the purified pediocin PA-1, we generated kill curves against a range of target bacteria (Fig. 1C). The concentration range tested was 3 pM to 3 μM following 10-fold serial dilutions. […] This is in approximate agreement with the published potency of pediocin PA-1 ([46]). Though the molecular mass of pediocin PA-1 is expected to be 4.5 kDa, we observed the partially purified peptide to migrate with an apparent mass of ~12.5 kDa (Fig. 1B). However, subsequent analysis by LC-MS yielded peaks of multiple m/z with the predominant peak at the expected molecular size of 4.6 kDa (Fig. S4). The purified pediocin PA-1, separated on denaturing but non-reducing SDS-PAGE (since this bacteriocin contains two crucial disulfide bonds), was subjected to agar-overlay assay using L. seeligeri as the indicator organism (Fig. S5).
The antimicrobial spectrum of pediocin PA-1 was assayed using a kill curve. Cultures grown overnight were resuspended in fresh medium at an OD600 of 0.05. EC50 was determined by incubating cells with varying concentrations of pediocin in a 96-well plate, and growth was measured at 600 nm after 24 h.
Figure S7. Growth inhibition of L. seeligeri by modified and unmodified pediocin PA-1.

[2] = system: L. seeligeri in a synthetic community; assay: Binding assay in the mixed community: FACS depletion of FITC-labeled cells, 16S sequencing of the fluorescence-negative population; assay type: cell-based, Listeria seeligeri; settings: before versus after sorting; pH 6.0, 4°C, 30 min; Fig. 4B
Text: We posited that the pediocin PA-1 characterized here could be a potential tool to modulate the abundance of specific species in an intact microbial community. To this end, we pursued two approaches: (i) using synthetic pediocin PA-1 to deplete specific species by killing and (ii) using FITC-conjugated pediocin PA-1 to deplete specific species by cell sorting. To deplete L. seeligeri by killing, we created a synthetic community of Lacticaseibacillus casei, L. plantarum, L. cremoris, E. faecium, and L. seeligeri and grew it for 2 h. We then split the culture into three parts to which we added 1 μM, 10 μM, or 0 (control) unmodified pediocin PA-1 (Lifetein), respectively. […] Next, we assessed the ability of FITC-conjugated pediocin (Ped-FITC) and its 15-mer version to deplete the target species through cell sorting. Again, we created a synthetic community containing L. seeligeri in abundance and assessed the proportion before and after fluorescence-activated cell sorting (FACS) of FITC-labeled cells. We attempted to sequence the fluorescence-positive population but were unsuccessful due to poor DNA yield. However, the genomic DNA isolated from the fluorescence-negative population indicated depletion of more than 50% in the proportion of L. seeligeri from the synthetic community (Fig. 4B). […]

L. seeligeri [3] = assay: Inhibition of the activity of full-length unmodified synthetic pediocin by truncated FITC peptides (growth inhibition curve); assay type: cell-based, Listeria seeligeri; settings: Fig. S9
Text: Despite similar primary structures, the pediocin-like bacteriocins differ in their target cell specificity (i.e., they differ in their antimicrobial spectra) ([49]). By determining the target cell specificity of hybrid bacteriocins containing N- and C-terminal regions from different pediocin-like bacteriocins, it has been shown that the C-termini of these bacteriocins determine target cell specificity ([49], [50]). […] Taking a cue from these studies, we proceeded to investigate whether fragments of pediocin PA-1 could serve as tags to specifically label pediocin-sensitive species without killing them. These could serve as tools to isolate target microorganisms from mixed samples. To this end, we synthesized fluorescein isothiocyanate (FITC)-conjugated versions of pediocin PA-1, a 15-mer (K20–A34) and an extended 30-mer fragment (S15–K43; Fig. S8). We first tested the bioactivity profile of FITC-conjugated pediocin and its fragments. […] Though the inactivity of 15-mer and 30-mer is expected, the loss of activity of pediocin-FITC conjugate could indicate the steric hindrance due to the fluorophore at the N-terminal, which is known to be critical for cell attachment ([53]). To test if this is due to the synthesis of the FITC-conjugate, we conjugated biotin, 7-nitrobenz-2-oxa-1,3-diazole (NBD), and Atto488 to the synthetic pediocin using EDC–NHS coupling (Fig. S6). […]

L. seeligeri [4] = assay: Cell-binding assay by flow cytometry; parameters: species or system Listeria seeligeri; settings: for pH dependence of binding: pH 4.0, 6.0 and 7.4, Fig. S10
Protocol: (§1) The binding affinity and avidity of pediocin to various gram-positive and gram-negative bacteria were studied using flow cytometry. Late log-phase cells were washed in the sodium phosphate buffer (5 mM, pH 6.0) and resuspended at an OD600 of 10^–3 in sodium-acetate buffer (25 mM, pH 4.0), sodium phosphate buffer (5 mM, pH 6.0), or sodium phosphate buffer (5 mM, pH 7.4) containing 1% bovine serum albumin (BSA) and 100 mM NaCl. Cells were incubated with varying concentrations of the conjugated peptide at 4°C for 30 min. The unbound peptide was removed by centrifugation, and the pellet was resuspended in its respective binding buffer containing 1% BSA. Flow cytometry was performed on an Attune NxT flow cytometer (Life Technologies/ThermoFisher Scientific, Carlsbad, CA). Data (≥10^4 events were recorded) were recorded using a […] (488 nm) at a voltage of 360 V, and gating was performed on an SSC-A versus SSC-H plot to reduce false events.

Enterococcus faecium = assay: Cell-binding assay by flow cytometry; settings: pH 6.0, Fig. 3C
Protocol: as §1

L. plantarum = assay: Cell-binding assay by flow cytometry; parameters: species or system Lactiplantibacillus plantarum; settings: pH 6.0, Fig. 3C
Protocol: as §1

L. cremoris = assay: Cell-binding assay by flow cytometry; parameters: species or system Lactococcus cremoris; settings: pH 6.0, flow cytometry, 4°C, 30 min; read-out: apparent KD
Protocol: as §1

L. coryniformis = assay: Cell-binding assay by flow cytometry; parameters: species or system Lactobacillus coryniformis
Protocol: as §1

Bacillus subtilis = assay: Cell-binding assay by flow cytometry; settings: pH 6.0, at the highest concentration (30 μM) tested
Protocol: as §1

Substance	antimicrobial activity of conjugated peptides (L. seeligeri [1])	depletion in the proportion of L. seeligeri, fluorescence-negative population after FACS [2]	ability to inhibit the activity of the full-length unmodified synthetic pediocin (L. seeligeri [3])	pH dependence of binding (L. seeligeri [4])	binding (Enterococcus faecium)	binding (L. plantarum)	Kd (L. cremoris)	increase of EC50 relative to the unmodified peptide (L. seeligeri [1]; kill curve, Fig. S7)	maximum fluorescence (L. coryniformis; flow cytometry)	binding (L. seeligeri [4]; pH 6.0, Fig. 3)	Kd (L. seeligeri [4]; pH 6.0, flow cytometry, 4°C, 30 min, read-out: apparent KD)	binding (Bacillus subtilis)	binding under acidic conditions (L. coryniformis; Fig. S10)
15-mer-FITC: FITC-conjugated 15-mer fragment (K20–A34) of pediocin PA-1 (KATTCIINNGAMAWA; also: FITC-conjugated (site not given here); UniProt P29430 38-52, looked up, fragment)	completely abolished	more than 50%	unable to do so	higher MFI at higher pHs	modest binding	modest binding	38 ± 4.7 µM	–	–	–	–	–	–
Ped-488: purified biosynthetic pediocin conjugated to Atto488 using EDC–NHS chemistry (KYYGNGVTCGKHSCSVDWGKATTCIINNGAMAWATGGHQGNHKC; ends and bridges not checked; also: Atto488 conjugated by EDC–NHS chemistry (site not given here); UniProt P29430 19-62, looked up)	–	–	–	–	–	–	–	> 100 fold	6,300 MFI	–	–	–	–
30-mer-FITC: FITC-conjugated extended 30-mer fragment (S15–K43) of pediocin PA-1 (SVDWGKATTCIINNGAMAWATGGHQGNHK; also: FITC-conjugated (site not given here); UniProt P29430 33-61, looked up, fragment)	completely abolished	–	unable to do so	higher MFI at higher pHs	–	–	–	–	–	did not show appreciable binding	–	–	–
Pediocin-FITC: synthesized fluorescein isothiocyanate (FITC)-conjugated full-length pediocin PA-1 ({FITC}-KYYGNGVTCGKHSCSVDWGKATTCIINNGAMAWATGGHQGNHKC; ends and bridges not checked; also: two disulfide bonds, pairing not given here; UniProt P29430 19-62, looked up)	completely abolished	more than 50%	–	strong binding to L. seeligeri at all the tested pHs	–	–	–	–	–	–	0.082 ± 0.011 µM	modest binding	surprisingly poor binding

Source: PMC13055374, “Engineered antimicrobial-derived peptides to manipulate mixed microbial systems” (Microbiology Spectrum, 2026)
